Reference: patent US20240390529A1, “DUAL-MODE PROBE FOR DETECTING HYDROGEN SULFIDE AND USE THEREOF” (KYUNGPOOK NATIONAL UNIVERSITY INDUSTRY-ACADEMIC COOPERATION …, priority 2022, published 2024)

Legend:
H2S in HeLa cells = assay: Fluorescence imaging of exogenous and endogenous H2S in live HeLa cells; type: cell-based, human
Description: Next, we investigated the usefulness of Cu-ATSM-FITC(5) for monitoring H2S levels in living cells (FIG. 14).

[1] = tested on: H2S concentration in brain tissues; assay: Quantification of H2S in brain by methylene blue method; type: in vivo, mice
Procedure: The methylene blue method was used to directly measure H2S concentration in brain tissues. Briefly, PET imaging was performed, brains were harvested, weighed, and homogenized in liquid N2. An ice-cold PBS solution in a volume equivalent to the weight of the homogenate (w/v, approximately 260 to 300 mg) was added, followed by vortex for 3 min and centrifugation (14,000 rpm, 5 min, 4° C.). Then, 100 μL of the supernatant was incubated together with 100 μL of 1% zinc acetate dihydrate at 37° C. for 10 minutes to immobilize H2S. 100 μL of 0.1 M sodium tetraborate buffer (pH 9) and 200 μL of 20 mM N, N-dimethyl-p-phenylenediamine sulfate were added to 7.2 M HCl, and 200 μL of 30 mM iron (III) chloride was added to 1.2 M HCl, and the mixture was incubated at 37° C. for 15 min to form methylene blue dyes. The mixture was centrifuged again (14,000 rpm, 5 minutes, 4° C.). 100 μL of supernatant was transferred in triplicate to 96-well plates, and absorbance was recorded spectrophotometrically at 670 nm. The H2S concentration was calculated by using a standard curve obtained by plotting absorbance (A670) versus NaHS concentration (0 to 30 μM). For quantification of H2S in the left and right hemispheres of the brains, PET imaging was performed, and only the cerebral hemispheres were harvested and processed separately. […]

[2] = Optical properties (UV-Vis absorbance, fluorescence emission); type: physicochemical
Procedure: The optical properties of the free ligand ATSM-FITC (4) were evaluated. […] When H2S sequestered Cu(II) ions from the copper complex (5) and precipitated CuS, the ATSM-FITC ligand was released and fluorescence was emitted (FIG. 7).

[3] = tested on: human hepatoma cells (HepG2); assay: MTT cytotoxicity analysis, HepG2; type: cell-based
Procedure: (§1) The cytotoxicity of Cu-ATSM-FITC(5) was evaluated through 3-(4,5-dimethyl-2-thiazolyl)-2,5-diphenyltetrazolium bromide (MTT; sigma-aldrich) analysis. Human cervical cancer cells (HeLa), human hepatoma cells (HepG2), and human embryonic kidney cells (HEK293) were prepared in 96-well plates at a density of 10,000 cells per well. As compared to the control group treated with PBS alone, they were treated with Cu-ATSM-FITC (5) at increasing concentrations of 1, 10, and 25 μM. Afterwards, they were incubated for 1, 4, and 24 hours (37° C., 5% CO2), respectively. For each treatment time, each well was added with 10 μL of MTT (5 mg/mL in PBS) solution and incubated for 3 hours. The supernatant was carefully aspirated, and the purple insoluble formazan crystals in the wells were dissolved using DMSO for 30 minutes. Absorbance was measured at 550 nm using a spectrophotometer (SPECTROstar Nano, BMG Labtech, Ortenberg, Germany). CuS was also performed four times in a similar manner by using HeLa, HEK293, HepG2, and human brain glioblastoma (U87MG) cells.

[4] = Selectivity toward competing biological species with and without H2S
Description: The selectivity of Cu-ATSM-FITC(5) was investigated against a variety of potentially competing biological species in the presence and absence of H2S (FIG. 6D).

[5] = Fluorescence stability and reactivity at various pH; type: physicochemical; details: pH 5 to 10
[6] = Measurement of quantum yield versus fluorescein standard; type: physicochemical; details: compared to the fluorescein standard value
Procedure: The background levels of methanol used in the experiment were measured by using a SpectraMaxi-3 spectraphotometer, and Cu-ATSM-FITC(5) was measured at concentrations of 0.02, 0.04, 0.06, 0.08, and 0.1 μM. A fluorescein standard line graph was obtained according to the concentration and intensity of Cu-ATSM-FITC(5). The quantum yield was calculated according to the following equation: Φ=ΦST (Grad x/Grad ST) (η×2/ηST 2). Here, the subscripts ST and X represent the measured values of the standard and test solutions, respectively. In addition, Φ represents the quantum yield and η represents the refractive index of the solution.

[7] = Fluorescence response of probe to NaHS (sensitivity, reaction rate, detection limit)
Procedure: To confirm the sensitivity, Cu-ATSM-FITC(5) was incubated with a wide range of NaHS concentrations (0-100 μM) at 37° C. and the fluorescence intensity was measured (FIG. 6B). […] When reacted with 50 μM NaHS solution, the fluorescence intensity of Cu-ATSM-FITC(5) reached a plateau within 30 seconds (FIG. 6C). In contrast, the reactivity of Cu-ATSM-FITC(5) toward L-cysteine (1 mM) and glutathione (GSH) (10 mM) was minimal, as compared to H2S, even though their concentrations were at least 20 times higher than H2S. The detection limit of Cu-ATSM-FITC(5) was calculated to be 0.20 μM using the regression equation (FIG. 8). The quantum yield was confirmed to be 0.33 according to the equation, as compared to the fluorescein standard value (FIG. 9).

mouse brain tissues = details: up to 7 days after injection of high-dose 500 μg; CuS precipitated
Procedure: Animals were anesthetized by using isoflurane, and injected with 100 μg of Cu-ATSM-FITC(5) in 100 μL of 10% DMSO/PBS, and 500 μg of Cu-ATSM-FITC(5) in 100 μL of 40% DMSO/PBS, respectively, through tail vein injection. The animals were perfused transcardially with saline 1, 3, and 7 days after the injection. The brains were dissected, fixed in 4% paraformaldehyde, and embedded in paraffin to make blocks. Serial coronal sections in paraffin with the thickness of 7 μm were obtained. The sections were stained with H&E by using a staining kit (BBC ClearView, BBC Eosin Y Alcoholic). The stained brain tissues were photographed under a Carl Ziess microscope at 400× magnification.

[8] = tested on: human embryonic kidney cells (HEK293); assay: MTT cytotoxicity analysis, HEK293; type: cell-based
Procedure: as §1

[9] = tested on: Human cervical cancer cells (HeLa); assay: MTT cytotoxicity analysis, HeLa; type: cell-based
Procedure: as §1

[10] = tested on: human brain glioblastoma (U87MG) cells; assay: MTT cytotoxicity analysis, U87MG; type: cell-based
Procedure: as §1

[11] = Biodistribution in normal BALB/c mice (γ-counter); type: in vivo; details: 4 hours after administration
Procedure: BALB/c mice (male, 9 weeks old) were used to investigate the systemic distribution and clearance rate of ^64Cu-ATSM-FITC (6). ^64Cu-ATSM-FITC (6) with a radioactivity of 0.56 to 0.74 MBq in a saline solution (5% DMSO, 200 μL) was injected into mice through the tail vein under anesthesia. […] Blood was drawn, and organs comprising heart, lung, muscle, fat, bone, spleen, kidney, liver, intestine, and brain were harvested, weighed, and analyzed by using a γ-counter (Wallac Wizard 1480, PerkinElmer, France). Radioactivity was calculated as percentage of injected dose per gram (% ID/g).
The distribution of ^64Cu-ATSM-aniline in the body was confirmed by using the same method as described in Experimental Methods 5 and 7 above.

For `C#CCC(N)C(=O)O` (racemic) [DL-propargylglycine, reference compound], the “green fluorescence due to endogenous H2S after CSE blockade” value (H2S in HeLa cells; 450 μM, HeLa cells probed with Cu-ATSM-FITC(5)) was “completely reduced”.
For `Cl.NOCC(=O)O.NOCC(=O)O` [AOAA], the “reduction of H2S concentration in the brain compared to controls” value ([1]; 10 mg/kg intraperitoneal, mice) was 32% and the “H2S concentration in the brain” value ([1]; AOAA-treated mice) was 2.1±0.5 μg/g brain.
In the case of `CNC(=S)N/N=C(C)/C(C)=N/NC(=S)Nc1ccc(-c2c3ccc(=O)cc-3oc3cc(O)ccc23)c(C(=O)O)c1` [ATSM-FITC (4), 2-(6-hydroxy-3-oxo-3H-xanthen-9-yl)-5-((E)-2-((E)-3-(2-(methylcarbamothioyl)hydrazono)butan-2-ylidene)hydrazinecarbothioamido)benzoic Acid], the absorbance band ([2]; UV-Vis spectroscopy) is reported as 494 nm and the maximum fluorescence emission ([2]; excitation at 480 nm) is reported as 524 nm.
In the case of `CNC([S-])=NN=C(C)C(C)=NN=C([S-])Nc1ccc(-c2c3ccc(=O)cc-3oc3cc(O)ccc23)c(C(=O)O)c1.[Cu+2]` [Cu-ATSM-FITC(5), Copper(II) Complex of 2-(6-hydroxy-3-oxo-3H-xanthen-9-yl)-5-((E)-2-((E)-3-(2-(methylcarbamothioyl)hydrazono)butan-2-ylidene)hydrazinecarbothioamido)benzoic Acid], the cytotoxicity [3] is reported as “No cytotoxicity was observed”, the “fluorescence intensity with competing species plus NaHS” value ([4]; NaHS 50 μM added with other biologically abundant species) is reported as “full fluorescence intensity was observed without interference” and the “reactivity (fluorescence signals) with other species” value ([4]; biothiols, inorganic sulfur species, reducing agents, nucleophiles, ROS/RNS, absence of H2S) is reported as “did not show reactivity”. The “stability and reactivity over physiological pH range” value [5] was “high stability and reactivity”, the quantum yield [6] was 0.33 and the “time for fluorescence intensity to reach a plateau” value ([7]; 50 μM NaHS solution) was no more than 30 s. For the same molecule, the “fluorescence enhancement at 524 nm” value ([7]; 100 μM NaHS compared to concentration 0, 37° C.) was “up to 3500 fold”, the “reactivity toward L-cysteine and glutathione (GSH) compared to H2S” value ([7]; L-cysteine 1 mM, GSH 10 mM) was “minimal” and the detection limit ([7]; calculated using the regression equation, H2S) was 0.20 µM. For the same molecule, the “toxicity in mouse brain tissues (H&E staining)” value (mouse brain tissues) was “low toxicity”, the cytotoxicity [8] was “No cytotoxicity was observed” and the “survival rate of HeLa cells” value ([9]; 1, 10, and 25 μM, 24 hours of incubation) was “exceeded 85%”. For the same molecule, the “detection of endogenous H2S induced by L-cysteine” value (H2S in HeLa cells; L-cysteine 100 μM) was “successfully detected the increase in endogenous H2S concentration”, the “green fluorescence intensity in HeLa cells on addition of NaHS” value (H2S in HeLa cells; NaHS 50 and 100 μM) was “linear rise in green fluorescence intensity” and the “fluorescence signal in HeLa cells” value (H2S in HeLa cells; probe 25 μM, no added H2S) was “faint fluorescence signal”. The “fluorescence signal of the complex” value ([2]; without H2S) was “did not show a detectable fluorescence signal”.
With `[S]=[Cu]` [CuS, copper sulfide] the cytotoxicity [3] was “no cytotoxicity was found”, the cytotoxicity [10] was “no cytotoxicity was found” and the cytotoxicity [8] was “no cytotoxicity was found”. For the same molecule, the cytotoxicity ([9]; HeLa) was “no cytotoxicity was found”.
With `CNC([S-])=NN=C(C)C(C)=NN=C([S-])Nc1ccc(N(C)C)cc1.[64Cu+2]` [^64Cu-ATSM-aniline, reference compound] the “distribution in the brain” value [11] was “very low” and the “organs of widest distribution” value [11] was “lungs and liver”.
